# In patent US10722471B2, “Galenic formulations of organic compounds” (Novartis AG, priority 2016, dated 2020):
# Test: Relative bioavailability and food effect of 200 mg LCZ696 mini-tablets vs 200 mg FMI tablet; randomized, open-label, single dose, crossover study;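 further: crossover design with one dose per period, healthy volunteers, 40 enrolled and 39 completing the study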
# Conditions: label = analyte; for extent of absorption (AUCs) with a high fat meal: LCZ696 200 mg mini-tablets sprinkled on pudding; for Cmax, geometric mean ratio, Mini tablets vs FMI tablet (Fasting) / AUCinf, geometric mean ratio, Mini tablets vs FMI tablet (Fasting) / AUClast, geometric mean ratio, Mini tablets vs FMI tablet (Fasting) / Cmax, geometric mean ratio, Pudding + High fat meal vs Pudding (Mini tablets) / AUCinf, geometric mean ratio, Pudding + High fat meal vs Pudding (Mini tablets) / AUClast, geometric mean ratio, Pudding + High fat meal vs Pudding (Mini tablets) / Cmax, geometric mean ratio, Pudding vs fasting (Mini tablets) / AUCinf, geometric mean ratio, Pudding vs fasting (Mini tablets) / AUClast, geometric mean ratio, Pudding vs fasting (Mini tablets): LCZ696 200 mg single oral dose, healthy subjects; for Cmax, geometric mean ratio, Mini tablets vs FMI tablet (Fasting) / AUCinf, geometric mean ratio, Mini tablets vs FMI tablet (Fasting) / AUClast, geometric mean ratio, Mini tablets vs FMI tablet (Fasting): test minitablets / reference FMI tablet; for Cmax, geometric mean ratio, Mini tablets vs FMI tablet (Fasting) / Cmax, geometric mean ratio, Pudding + High fat meal vs Pudding (Mini tablets) / Cmax, geometric mean ratio, Pudding vs fasting (Mini tablets): parameter head prints ng/ml; for AUCinf, geometric mean ratio, Mini tablets vs FMI tablet (Fasting) / AUClast, geometric mean ratio, Mini tablets vs FMI tablet (Fasting) / AUCinf, geometric mean ratio, Pudding + High fat meal vs Pudding (Mini tablets) / AUClast, geometric mean ratio, Pudding + High fat meal vs Pudding (Mini tablets) / AUCinf, geometric mean ratio, Pudding vs fasting (Mini tablets) / AUClast, geometric mean ratio, Pudding vs fasting (Mini tablets): parameter head prints ng·h/ml; for Cmax, geometric mean ratio, Pudding + High fat meal vs Pudding (Mini tablets) / AUCinf, geometric mean ratio, Pudding + High fat meal vs Pudding (Mini tablets) / AUClast, geometric mean ratio, Pudding + High fat meal vs Pudding (Mini tablets): test minitablets on pudding + high fat meal / reference minitablets with pudding; for Cmax, geometric mean ratio, Pudding vs fasting (Mini tablets) / AUCinf, geometric mean ratio, Pudding vs fasting (Mini tablets) / AUClast, geometric mean ratio, Pudding vs fasting (Mini tablets): test minitablets with pudding / reference minitablets; for decrease of Cmax with a high fat meal: single dose LCZ696 200 mg mini-tablets sprinkled on pudding
"Cmax, geometric mean ratio, Mini tablets vs FMI tablet (Fasting)","AUCinf, geometric mean ratio, Mini tablets vs FMI tablet (Fasting)","AUClast, geometric mean ratio, Mini tablets vs FMI tablet (Fasting)","Cmax, geometric mean ratio, Pudding + High fat meal vs Pudding (Mini tablets)","AUCinf, geometric mean ratio, Pudding + High fat meal vs Pudding (Mini tablets)","AUClast, geometric mean ratio, Pudding + High fat meal vs Pudding (Mini tablets)","Cmax, geometric mean ratio, Pudding vs fasting (Mini tablets)","AUCinf, geometric mean ratio, Pudding vs fasting (Mini tablets)","AUClast, geometric mean ratio, Pudding vs fasting (Mini tablets)",decrease of Cmax with a high fat meal [%],SMILES,extent of absorption (AUCs) with a high fat meal
0.94,0.96,0.96,0.4,1.01,1.00,1.00,1.04,1.04,60,"CCOC(=O)[C@H](C)C[C@@H](Cc1ccc(-c2ccccc2)cc1)NC(=O)CCC(=O)O [Sacubitril, (2R,4S)-5-biphenyl-4-yl-4-(3-carboxy-propionylamino)-2-methyl-pentanoic acid ethyl ester]",comparable
1.09,1.11,1.11,0.43,0.6,0.59,1.02,1.02,1.04,57,"CCCCC(=O)N(Cc1ccc(-c2ccccc2-c2nnn[nH]2)cc1)[C@H](C(=O)O)C(C)C [Valsartan, S—N-valeryl-N-{[2′-(1H-tetrazole-5-yl)-biphenyl-4-yl]-methyl}-valine]",–

SMILES,"Cmax, geometric mean ratio, Mini tablets vs FMI tablet (Fasting)","AUCinf, geometric mean ratio, Mini tablets vs FMI tablet (Fasting)","AUClast, geometric mean ratio, Mini tablets vs FMI tablet (Fasting)","Cmax, geometric mean ratio, Pudding + High fat meal vs Pudding (Mini tablets)","AUCinf, geometric mean ratio, Pudding + High fat meal vs Pudding (Mini tablets)","AUClast, geometric mean ratio, Pudding + High fat meal vs Pudding (Mini tablets)","Cmax, geometric mean ratio, Pudding vs fasting (Mini tablets)","AUCinf, geometric mean ratio, Pudding vs fasting (Mini tablets)","AUClast, geometric mean ratio, Pudding vs fasting (Mini tablets)",decrease of Cmax with a high fat meal [%],extent of absorption (AUCs) with a high fat meal
"C[C@H](C[C@@H](Cc1ccc(-c2ccccc2)cc1)NC(=O)CCC(=O)O)C(=O)O [LBQ657, (2R,4S)-5-biphenyl-4-yl-4-(3-carboxy-propionylamino)-2-methyl-pentanoic acid]",0.95,0.98,0.98,0.81,1.02,1.02,0.99,1.01,1.01,19,comparable
